This is an account of results in patent US5654296A, “Condensed heterocyclic compounds, their production and use” (priority 1994, dated 1997).

Where a name gives a salt, the structure may show the parent alone.

The test addresses T1, human GnRH receptors (Homo sapiens, UniProt P30968).
T1 construct: expressed in transfected cells; host or cells: CHO (Chinese hamster ovary) cells, membrane fraction
T1 sequence (P30968 1-328): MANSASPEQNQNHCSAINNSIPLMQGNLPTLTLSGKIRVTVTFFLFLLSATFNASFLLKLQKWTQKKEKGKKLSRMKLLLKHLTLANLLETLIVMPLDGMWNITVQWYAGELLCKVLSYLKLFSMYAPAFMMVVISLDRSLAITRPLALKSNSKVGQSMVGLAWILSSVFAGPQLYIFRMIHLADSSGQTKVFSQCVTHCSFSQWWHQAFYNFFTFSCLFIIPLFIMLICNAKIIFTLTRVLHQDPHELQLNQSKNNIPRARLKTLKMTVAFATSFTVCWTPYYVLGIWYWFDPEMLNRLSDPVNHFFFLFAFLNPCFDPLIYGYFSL
In words: 125I-leuprolerin GnRH receptor binding inhibition test, human (CHO cell membrane fraction). The note with it: human GnRH receptors expressed in CHO cells, 25° C., 60 minutes, read-out: Binding inhibitory activity (IC50 μM) Human. As to the method:
Ten (10) μl of 3×10^4 M aqueous leuprolerin solution and 10 μl of 0.01 mg/ml lactoperoxidase were taken in a tube and 10 μl of Na^125 I solution (37 MBq) was added. After stirring, 10 μl of 0.001% H2 O2 was added and the reaction was conducted at room temperature for 20 minutes. Then, 700 μl of 0.05% TFA solution was added to the tube to terminate the reaction and the reaction mixture was purified by reverse-phase HPLC. The HPLC conditions are shown below. ^125 I-leuprolerin was eluted after a retention time of 26-27 minutes. (D) Preparation of a CHO (Chinese Hamster Ovarian) Cell Membrane Fraction Containing Human GnRH Receptors […] To the cell pellet was added 10 ml of cell homogenate buffer (10 mM NaHCO3, 5 mM EDTA, pH 7.5) and the mixture was homogenized using a Polytron homogenizer. The homogenate was centrifuged at 400×G for 15 minutes. The supernatant was taken in an ultracentrifuge tube and centrifuged at 100,000×G for 1 hour to provide a membrane fraction pellet. […] After filtration, the radioactivity of ^125 I-leuprolerin remaining on the filter was measured with a γ-counter. The expression (TB-SB)/(TB-NSB)×100 (where SB=radioactivity with the compound added, TB=maximum bound radioactivity, NSB=nonspecifically bound radioactivity) was calculated to find the binding inhibition rate of each test compound.

For orientation: IC50 means the point on the concentration scale where inhibition reaches its midpoint. Consider `COC(=O)c1cccc(CNCCCC2(c3ccccc3)COCc3ccccc32)c1` (stereo not drawn) [Example I-45, Methyl α-[3-(4-Phenylisochroman-4-yl)propylamino]-m-toluate hydrochloride], for which the IC50 was found to be 6 µM. Consider `COc1cc2c(cc1OC)CC1(CCCCN1CCCCC1(c3ccccc3)COCc3ccccc31)CC2` (centres unmarked) [Example I-52, 3,4-Dihydro-6,7-dimethoxy-1'-[4-(4-phenylisochroman-4-yl)butyl]spiro[naphthalene-2(1H),2'-piperidine] hydrochloride], for which the IC50 turned out to be 6 µM.
